Measurements from US10472369B2, “Crystalline forms of (6-(1H-indazol-6-yl)-N-[4-(4-(4-morpholinyl)phenyl]imidazo[1,2-A]pyrazin-8-amine) methanesulfonate” (Crystal Pharmatech Co., Ltd., priority 2016, dated 2019).
Converted amounts (≈) assume the structure as drawn.

Key:
[1] = Hygroscopicity by dynamic vapor sorption (DVS); assay type: physicochemical; settings: for Weight gain 10% RH / Weight gain 20% RH / Weight gain 30% RH / Weight gain 40% RH / Weight gain 50% RH / Weight gain 60% RH: DVS 0-95%-0 RH cycle at 25° C.
Method: Dynamic Vapor Sorption (DVS) is measured via a SMS (Surface Measurement Systems Ltd.) intrinsic DVS. Its control software is DVS-Intrinsic control software, and its analysis software is DVS-Intrinsic Analsis software. Typical Parameters for DVS test are as follows:
Gas and flow rate: N2, 200 mL/min
RH range: 0% RH to 95% RH
Hygroscopicity of form III was measured in dynamic vapor sorption (DVS) instrument using 7.34 mg of form III obtained from example 6. The DVS plot is shown in FIG. 20, and the weight gain of form III at 80% RH is 6.48%.
6.5 mg of prior form 7 was placed in a DVS instrument, and subjected to a cycle of 0-95%-0RH at 25° C., the DVS plot is shown in FIG. 23.
9.2 mg of Form I was placed in a DVS instrument, and subjected to a cycle of 0-95%-0RH at 25° C., the DVS plot is shown in FIG. 24.
3.6 mg of Form II was placed in a DVS instrument and subjected to a cycle of 0-95%-0RH at 25° C., the DVS plot is shown in FIG. 25.

[2] = Slurry/stirring in H2O/IPA solvent systems with different water activities, final form by XRPD; assay type: physicochemical; settings: 6 days
Method: Prior form 7 as starting material was stirred at room temperature in solvent systems with different water activities for 6 days, and tested.
Prior form 3 was stirred at room temperature in solvent systems with different water activities for 4 days, then the solid was tested.

[3] = Particle size distribution (PSD), laser particle size analyzer, wet process; assay type: physicochemical; settings: dispersion medium Isopar G
Method: The particle size distribution test in the present disclosure is acquired by the S3500 laser particle size analyzer of Microtrac. Microtrac S3500 is equipped with the Sample Delivery Controller. The test is carried out by wet process, and the dispersion medium is Isopar G. The parameters are as follow:
D10: The D10 describes the diameter where 10% of the distribution has a smaller particle size.
D50: The D50 describes the diameter where 50% of the distribution has a smaller particle size. The median is also called D50.
D90: The D90 describes the diameter where 90% of the distribution has a smaller particle size. Unless otherwise specified, the following examples were conducted at room temperature.

[4] = cited from earlier work
[5] = Storage stability (purity and XRPD crystalline form after storage); assay type: physicochemical
Method: Form II obtained from example 3 was stored under 25° C./60% RH for 90 days. XRPD patterns were collected before and after stored for 15 days, 30 days and 90 days.
Form III was stored under 25° C./60% RH and 40° C./75% RH for 300 days. XRPD patterns were collected after stored for 15 days, 30 days and 300 days.

[6] = Solubility of saturated solutions in acetone and tetrahydrofuran by HPLC; settings: saturated solution, after 24 hours
[7] = listed as Form II of the present disclosure
[8] = listed as Form I of the present disclosure

CS(=O)(=O)O.CS(=O)(=O)O.c1cn2cc(-c3ccc4cn[nH]c4c3)nc(Nc3ccc(N4CCOCC4)cc3)c2n1 [Prior form 7, reference compound]
Weight gain 10% RH [1]: 1.68%
Weight gain 20% RH [1]: 2.78%
Weight gain 30% RH [1]: 4.61%
Weight gain 40% RH [1]: 10.04%
Weight gain 40% RH ([1]; listed as prior form 7): 10%
Weight gain 50% RH [1]: 11.00%
Weight gain 60% RH [1]: 11.83%
Final crystalline form ([2]; H2O/IPA = 1:99, water activity 0.12, room temperature): Form III of the present
Final crystalline form ([2]; H2O/IPA = 3:97, water activity 0.3, room temperature): Form III of the present
Final crystalline form ([2]; H2O/IPA = 6:94, water activity 0.5, room temperature): Form III of the present
Final crystalline form ([2]; H2O/IPA = 11:89, water activity 0.7, room temperature): Form III of the present
Final crystalline form ([2]; H2O/IPA = 23:77, water activity 0.9, room temperature): Form III of the present
Final crystalline form in all experiments ([2]; all water activities, room temperature): converted to form III
D(10) [3]: 3.41 μm
D(50) [3]: 9.37 μm
D(90) [3]: 37.69 μm
weight gain at 80% RH (prior crystalline forms) ([4]; 80% RH): ~20%
hygroscopicity under various humidity conditions ([4]; various humidity conditions): very high

c1cn2cc(-c3ccc4cn[nH]c4c3)nc(Nc3ccc(N4CCOCC4)cc3)c2n1 [Form II, 6-(1H-indazol-6-yl)-N-[4-(4-morpholinyl)phenyl] imidazo [1,2-a]pyrazin-8-amine]
Weight gain 10% RH [1, 7]: 1.41%
Weight gain 20% RH [1, 7]: 1.98%
Weight gain 30% RH [1, 7]: 2.34%
Weight gain 40% RH [1, 7]: 2.65%
Weight gain 50% RH [1, 7]: 2.95%
Weight gain 60% RH [1, 7]: 3.35%
weight gain at 0-70% RH (in words) ([1]; DVS at 25° C., 0-70% RH): doesn't show obvious weight gain
Crystalline form after storage ([5]; 25° C./60%RH, 15 days): Form II
Purity % ([5]; 25° C./60%RH, 15 days): 99.50%
Crystalline form after storage ([5]; 25° C./60%RH, 30 days): Form II
Purity % ([5]; 25° C./60%RH, 30 days): 99.78%
Crystalline form after storage ([5]; 25° C./60%RH, 90 days): Form II
Purity % ([5]; 25° C./60%RH, 90 days): 99.52%
Crystalline form after storage ([5]; 25° C./60%RH, initial): Form II
Purity % ([5]; 25° C./60%RH, initial): 99.64%
D(10) [3, 7]: 4.15 μm
D(50) [3, 7]: 27.48 μm
D(90) [3, 7]: 128.7 μm
Solubility ([6]; Acetone): 26 µg/mL (≈ 63.2 µM)
Solubility ([6]; Tetrahydrofuran): 18 µg/mL (≈ 43.7 µM)

c1cn2cc(-c3ccc4cn[nH]c4c3)nc(Nc3ccc(N4CCOCC4)cc3)c2n1 [Form III, 6-(1H-indazol-6-yl)-N-[4-(4-morpholinyl)phenyl] imidazo [1,2-a]pyrazin-8-amine]
weight gain at 80% RH ([1]; DVS, 25° C., 80% RH): 6.48%
crystalline form after DVS test (XRPD) ([1]; solid collected after DVS): doesn't change
Crystalline form after storage ([5]; 25° C./60%RH, 15 days): Form III
Purity % ([5]; 25° C./60%RH, 15 days): 99.71%
Crystalline form after storage ([5]; 25° C./60%RH, 30 days): Form III
Purity % ([5]; 25° C./60%RH, 30 days): 99.78%
Crystalline form after storage ([5]; 25° C./60%RH, 300 days): Form III
Purity % ([5]; 25° C./60%RH, 300 days): 99.56%
Crystalline form after storage ([5]; 25° C./60%RH, initial): Form III
Purity % ([5]; 25° C./60%RH, initial): 99.82%
Crystalline form after storage ([5]; 40° C./75%RH, 15 days): Form III
Purity % ([5]; 40° C./75%RH, 15 days): 99.68%
Crystalline form after storage ([5]; 40° C./75%RH, 30 days): Form III
Purity % ([5]; 40° C./75%RH, 30 days): 99.73%
Crystalline form after storage ([5]; 40° C./75%RH, 300 days): Form III
Purity % ([5]; 40° C./75%RH, 300 days): 99.47%
Crystalline form after storage ([5]; 40° C./75%RH, initial): Form III
Purity % ([5]; 40° C./75%RH, initial): 99.82%

c1cn2cc(-c3ccc4cn[nH]c4c3)nc(Nc3ccc(N4CCOCC4)cc3)c2n1 [Form I, 6-(1H-indazol-6-yl)-N-[4-(4-morpholinyl)phenyl] imidazo [1,2-a]pyrazin-8-amine]
Weight gain 10% RH [1, 8]: 0.69%
Weight gain 20% RH [1, 8]: 0.99%
Weight gain 30% RH [1, 8]: 1.33%
Weight gain 40% RH [1, 8]: 1.82%
Weight gain 50% RH [1]: 2.82%
Weight gain 60% RH [1, 8]: 8.13%
D(10) [3, 8]: 10.23 μm
D(50) [3, 8]: 62.54 μm
D(90) [3, 8]: 240.0 μm
Solubility ([6]; Acetone): 61 µg/mL (≈ 148 µM)
Solubility ([6]; Tetrahydrofuran): 48 µg/mL (≈ 117 µM)
